Consider two compounds from paper PMC8626775, “Anti-schistosomal activities of quinoxaline-containing compounds: From hit identification to lead optimisation” (European Journal of Medicinal Chemistry, 2021).

Read-outs that look alike come from different tables or passages of the source.

The nature of data set [1]: HepG2 MTT cytotoxicity assay. The settings on record: human, HepG2 cells. The method, then: Initially the cells were handled under sterile conditions and grown at 37 °C in a humidified atmosphere containing 5% CO2. Cytotoxicity was evaluated by way of a 3-(4, 5- dimethylthiazol-2-yl)-2,5-diphenyl tetrazolium bromide (MTT) assay as previously described. The cells were counted in a dual chamber counting slide using the BIORAD TC-10 Automated cell counter, seeded in a 96-well plate (Fisher Scientific, Loughborough, UK) at a density of 2 × 10^4 cells/well and incubated in an atmosphere of 5% CO2 at 37 °C. […] The absorbance readings (at 570 nm) of the soluble formazan crystals were recorded using PolarStar Omega plate reader (BMG-Labtech). […] The latter was used to calculate the selectivity index (SI) of the compounds presented herein.

In another data set the test system is S. mansoni schistosomula. Put plainly: S. mansoni schistosomula high-throughput phenotype and motility screen (Roboworm), 72 h. It counts as cell-based, Schistosoma mansoni. In short, it runs like this:
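Newly transformed schistosomula (S. mansoni PR-1, mechanically transformed cercariae), 120 per well, exposed to compounds at a single concentration or two-fold titrations for 72 h at 37 °C, 5% CO2.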

The next data set relates to S. mansoni adult worms. The data set can be described thus: S. mansoni adult worm motility screen (WormassayGP2), 72 h. In kind it is cell-based, Schistosoma mansoni. In short, it runs like this:
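Seven-week adult S. mansoni worms, perfused from infected mice, were exposed in duplicate (1–3 pairs/well) to […] compound in 0.5% DMSO for 72 h at 37 °C, 5% CO2. Motility was scored by image-based WormassayGP2, and eggs were counted afterwards.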

In data set [2] the test system is S. mansoni. Also noted: method as in PMID 24416463. The settings on record: cited from earlier work.
Data set [3] concerns S. mansoni. Details: method as in PMID 24416463. The settings on record: cited from earlier work. This is another data set of the same source.

`O=[N+]([O-])c1ccc2nc(Nc3ccccc3)c(Nc3ccccc3)nc2c1` [Compound 19] showed a CC50 at 24 h in data set [1] of 12600 nM. The “Activity on schistosomula in the primary screen at 10 μM” value in the data set on S. mansoni schistosomula (10 μM, 72 h) is on record as “retained activity”. For the same compound, the concentration giving a half-maximal response (EC50) in the data set with S. mansoni schistosomula (Schistosoma mansoni, 72 h, Table 1, 72 h, two dose response titrations (0.313–10 μM), 95% CI in brackets, read-out: Activity on schistosomula (EC50, μM - 72 h) Motility) is 1.35 µM; in the data set with S. mansoni schistosomula (Schistosoma mansoni, 72 h, Table 1, 72 h, two dose response titrations (0.313–10 μM), 95% CI in brackets, read-out: Activity on schistosomula (EC50, μM - 72 h) Phenotype), 1.89 µM; in the data set with S. mansoni schistosomula (Schistosoma mansoni, 72 h, Table 1, mean of phenotype and motility EC50, 72 h, read-out: Activity on schistosomula (EC50, μM - 72 h) Average), 1.62 µM; with S. mansoni schistosomula (Schistosoma mansoni, Table 3, read-out: Anti-schistosomal activity EC50 (μM) Schistosomula Motility), 1.35 µM; in the data set on S. mansoni schistosomula (Schistosoma mansoni, Table 3, read-out: Anti-schistosomal activity EC50 (μM) Schistosomula Phenotype), 1.89 µM. In addition, the “Effect on adult worm motility at 3.15 μM” value in the data set with S. mansoni adult worms (3.15 μM, lowest concentration tested) is “complete cessation of worm mobility”. In the data set on S. mansoni adult worms (12.5 and 6.25 μM), the “Effect on adult worm motility at 12.5 and 6.25 μM” value is given as “particularly active”.
For “N2, N3-bis(4-bromophenyl)quinoxaline-2,3-diamine [Compound 38, reference compound]”, the Worm burden reduction was 53.4% in the data set with S. mansoni [2] (four per oral doses of 100 mg/kg, delivered every 4 h) and 40.8% in the data set with S. mansoni [2] (single per oral dose of 400 mg/kg). Moreover, the concentration giving a half-maximal response (EC50) was over 2 µM in the data set on S. mansoni schistosomula (72 h, read-out: EC50 on schistosomula (bounds and ranges given)); 2.44 µM with S. mansoni schistosomula (Table 2, average of phenotype and motility EC50, 72 h, read-out: Activity on schistosomula (EC50, μM - 72 h) Average); 1.21 µM with S. mansoni schistosomula (Table 2, motility, 72 h, three replicate titrations (0.313–10 μM), read-out: Activity on schistosomula (EC50, μM - 72 h) M); 3.67 µM in the data set with S. mansoni schistosomula (Table 2, phenotype, 72 h, three replicate titrations (0.313–10 μM), read-out: Activity on schistosomula (EC50, μM - 72 h) P); 0.162 µM in the data set on S. mansoni adult worms (Table 2, 72 h, titrations 0.0095–5 μM, WormassayGP2, read-out: Activity on adult worms (EC50, μM - 72 h) Motility). The “In vitro activity on S. mansoni” value with S. mansoni [3] is recorded as “sub micromolar range”.

For orientation: CC50 means the concentration at which the toxic effect on the cells reaches its halfway point. What is called EC50 is the midpoint of the concentration-response curve.
